Experimental findings from US4535083A, “Cleavage products of 4',6'-didesoxy-4'-thio-,6'-amino-hepturonic acid nucleosides” (Bayer Aktiengesellschaft, priority 1982, dated 1985) are described below.

The term MIC denotes the lowest concentration found to suppress growth. Lower therefore signals greater potency.

Holding throughout (assay): in vitro agar dilution test (NCCLS), MIC
Type in all cases: cell-based

The subject of one test is Staph. epid. 25185. To be noted: inoculation density 10^4 per inoculation point. As for the experimental part: (§1) In the in vitro agar dilution test according to the internationally customary test (American National Committee for Clinical Laboratory Standards=NCCLS), activity is found against the germs listed below.
(§2) The minimum inhibitory concentration (MIC) was determined by the agar dilution procedure, using an inoculator and an inoculation density of 10^4 per inoculation point. The MIC is the concentration at which no bacteria colonies grow.

The subject of another test is Klebs. 57 USA. To be noted: inoculation density 10^4 per inoculation point. As for the experimental part: as §1, §2
The test system of the next test is E. coli Neumann. To be noted: Escherichia coli, inoculation density 10^4 per inoculation point. On the procedure: as §1, §2
A further test concerns Serratia 16001. The conditions noted are these: inoculation density 10^4 per inoculation point. On the procedure: as §1, §2

Values after ≈ are worked out from the molar mass of the structure shown.

Take `Cn1c(=NC(N)=O)ccn(C2SC(C(O)C(NC(=O)C(N)CO)C(=O)O)C(O)C2O)c1=O` (stereo not shown) [1 X = NCONH2]: the MIC with Staph. epid. 25185 is 64 µg/mL (≈ 134 µM); with Klebs. 57 USA it was 4 µg/mL (≈ 8.4 µM); against E. coli Neumann, 32 µg/mL (≈ 67.2 µM).

With `Cn1c(=O)ccn(C2SC(C(O)C(NC(=O)C(N)CO)C(=O)O)C(O)C2O)c1=O` (stereo not shown) [1 X = O], the minimal inhibitory concentration (MIC) in the test on Serratia 16001 was 128 µg/mL (≈ 295 µM).
